Drawing on patent US20070054899A1 (priority 2003, published 2007), this text covers IC50, inhibition in vivo and melting point for 20 compounds.

In series [1] the target is aromatase (e) (UniProt O46512). It is filed as biochemical. The note with it: value marked (e); read-out: Activity In vitro IC50(nM), (e).
In series [2] the test system is uterine hypertrophy induced by androstenedione. Briefly: Activity in vivo: inhibition of uterine hypertrophy induced by androstenedione. On the set-up: species or system rat (Sprague-Dawley). As to conditions: Rattus norvegicus, 96 h, immature female rats, androstenedione 30 mg/kg for 4 days, read-out: % inhibition to doses (μg/Kg); for inhibition in vivo at 0.01 mg/kg: dose 10 μg/Kg; for inhibition in vivo at 0.1 mg/kg: dose 100 μg/Kg; for inhibition in vivo at 1 mg/kg: dose 1000 μg/Kg; for inhibition in vivo at 0.001 mg/kg: dose 1 μg/Kg. The protocol: The activity in vivo of aromatase inhibition by compounds of formula (I) according to the invention has been tested according to the model established by Bharnagar et al. (1990).
In general, immature female rats of the Sprague-Dawley line of a weight ranging from 40 to 50 g have been treated with a dose of androstenedione at 30 mg/kg for 4 days, in the absence or in the presence of doses of various compounds of formula (I).
Four hours after administration of an aromatase inhibitor, the rats were sacrificed. Their uteruses were removed, cleared of adhering fat and conjunctive tissue, next the uteruses were weighed (wet weight). The dry weight of the uteruses was determined the following day after a step of drying for one night at 80° C.

In series [3] the target is T1, aromatase (microsomes from the human placenta) (Homo sapiens, UniProt P11511).
T1 construct: using microsomes from the human placenta as source of the enzyme; from tissue; host or cells: human placenta microsomes
T1 sequence (P11511 1-503): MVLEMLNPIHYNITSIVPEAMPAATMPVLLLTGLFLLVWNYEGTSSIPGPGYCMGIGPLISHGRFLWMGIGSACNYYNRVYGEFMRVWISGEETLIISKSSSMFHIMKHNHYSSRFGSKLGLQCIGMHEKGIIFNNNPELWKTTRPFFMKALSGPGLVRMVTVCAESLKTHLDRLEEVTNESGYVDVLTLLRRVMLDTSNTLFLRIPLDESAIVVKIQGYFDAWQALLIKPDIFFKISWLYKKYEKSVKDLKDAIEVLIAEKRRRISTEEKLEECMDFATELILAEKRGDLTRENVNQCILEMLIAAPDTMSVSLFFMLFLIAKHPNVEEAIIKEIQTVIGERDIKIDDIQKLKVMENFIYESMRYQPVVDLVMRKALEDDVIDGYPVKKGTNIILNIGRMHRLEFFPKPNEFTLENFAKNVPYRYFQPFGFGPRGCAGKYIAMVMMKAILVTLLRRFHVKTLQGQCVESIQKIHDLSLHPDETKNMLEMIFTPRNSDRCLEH
Briefly: Aromatase inhibition in vitro, tritiated water method, human placenta microsomes. The format is biochemical.

Setting [4] is: value marked (h), read-out: Activity In vitro IC50(nM), (h).
Setting [5] is: value without (h)/(e) mark, read-out: Activity In vitro IC50.

Like-named read-outs stand apart in the source and are kept apart here.

aromatase (e), sequence (O46512 whole entry): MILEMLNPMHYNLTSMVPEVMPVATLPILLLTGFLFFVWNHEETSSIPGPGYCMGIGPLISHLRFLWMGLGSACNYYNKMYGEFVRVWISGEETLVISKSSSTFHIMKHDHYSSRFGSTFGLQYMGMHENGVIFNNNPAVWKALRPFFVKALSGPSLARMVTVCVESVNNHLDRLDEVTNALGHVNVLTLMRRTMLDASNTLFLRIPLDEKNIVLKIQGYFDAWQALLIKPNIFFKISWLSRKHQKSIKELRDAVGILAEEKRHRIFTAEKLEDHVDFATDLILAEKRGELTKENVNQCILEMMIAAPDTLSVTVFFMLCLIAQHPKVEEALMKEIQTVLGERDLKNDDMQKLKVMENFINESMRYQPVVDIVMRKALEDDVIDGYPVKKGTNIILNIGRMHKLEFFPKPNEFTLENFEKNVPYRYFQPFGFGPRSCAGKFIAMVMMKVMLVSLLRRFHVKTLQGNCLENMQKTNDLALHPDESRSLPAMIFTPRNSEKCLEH

For `Cn1c(=O)sc2cc(C(c3ccccc3)n3ccnc3)ccc21` (racemic) [(+/−)PCH28, 6-[1H-Imidazol-1-yl(phenyl)methyl]-3-methyl-1,3-benzothiazol-2(3H)-one], the half-maximal inhibitory concentration (IC50) (as a rule, the concentration at which inhibition is half-maximal) in series [1] was found to be 23.4 nM. In series [2], the inhibition in vivo at 0.01 mg/kg was determined as 13%, the inhibition in vivo at 0.1 mg/kg was 25% and the inhibition in vivo at 1 mg/kg amounted to 75%.

For `Cn1c(=O)oc2cc(C(c3ccccc3)n3ccnc3)ccc21` (stereo not drawn) [AL22, 6-[1H-Imidazol-1-yl(phenyl)methyl]-3-methyl-1,3-benzoxazol-2(3H)-one], the 50% inhibitory concentration (IC50) stood at 320 nM in series [3] (setting [4]) and 340 nM in series [1].

Take `Cn1c(=O)oc2cc(C(c3cccc(C#N)c3)n3ccnc3)ccc21` (stereo not drawn) [PC122]: the IC50 in series [3] (setting [4]) stood at 18.6 nM. Further, the IC50 in series [1] worked out at 23.2 nM. Further, in series [2], the inhibition in vivo at 0.01 mg/kg turned out to be 39%, the inhibition in vivo at 0.1 mg/kg was determined as 58% and the inhibition in vivo at 1 mg/kg is 92%.

As to `CCn1c(=O)[se]c2cc(C(c3ccc(C#N)cc3)n3cncn3)ccc21` (stereo not drawn) [PC11303, 4-[(3-Ethyl-2-oxo-2,3-dihydro-1,3-benzoselenazol-6-yl)(1H-1,2,4-triazol-1-yl)methyl]benzonitrile], the melting point (commonly the temperature, or range, at which the solid turns liquid) fell in the range of 95 to 98 °C. The IC50 in series [3] (setting [5]) worked out at 3.99 nM. For the same compound, in series [2], the inhibition in vivo at 0.001 mg/kg came to 38%, the inhibition in vivo at 0.01 mg/kg turned out to be 60% and the inhibition in vivo at 0.1 mg/kg was 71%.

As for `O=c1[nH]c2ccc(C(c3ccccc3)n3ccnc3)cc2o1` (stereo not drawn) [PCH10, 6-[1H-Imidazol-1-yl(phenyl)methyl]-1,3-benzoxazol-2(3H)-one], the values for the IC50 in series [3] (setting [4]) and in series [1] were 84.6 nM and 103 nM, respectively.

Regarding `CN1C(=O)COc2cc(C(c3ccccc3)n3ccnc3)ccc21` (stereo not drawn) [PCH19, 4-Methyl-7-[1H-imidazol-1-yl(phenyl)methyl]-1,4-benzoxazin-3(4H)-one], the results for the concentration for half-maximal inhibition (IC50) in series [3] (setting [4]) and in series [1] were 52.5 nM and 59.9 nM, respectively.

`Cn1c(=O)oc2cc(C(c3ccc(C#N)cc3)n3ccnc3)ccc21` (stereo not drawn) [PCH27]: the half-inhibitory concentration (IC50) turned out to be 4.62 nM in series [3] (setting [4]) and 72 nM in series [1].

As for `Cn1c(=O)oc2cc(C(c3ccncc3)n3ccnc3)ccc21` (stereo not drawn) [PCH30], the 50% inhibitory concentration (IC50) in series [3] (setting [4]) came out at 38 nM; in series [1] it was 477 nM.

Turning to `Cn1c(=O)oc2ccc(C(c3ccccc3)n3ccnc3)cc21` (stereo not drawn) [PCH31, 3-Methyl-5-[1H-imidazol-1-yl-(phenyl)methyl]-1,3-benzoxazol-2(3H)-one], the 50% inhibitory concentration (IC50) in series [3] (setting [4]) was found to be 46.6 nM; in series [1], 50.1 nM.

As to `O=c1[nH]c2ccc(C(c3ccccc3)n3ccnc3)cc2s1` (stereo not drawn) [PCH100, 6-[1H-Imidazol-1-yl(phenyl)methyl]-1,3-benzothiazol-2(3H)-one], the concentration for half-maximal inhibition (IC50) was 33.7 nM in series [3] (setting [4]) and 34 nM in series [1].

On to `N#Cc1ccc(C(c2ccc3[nH]c(=O)oc3c2)n2ccnc2)cc1` (stereo not drawn) [PCH113, 6-[(4-Cyanophenyl)(1H-imidazol-1-yl)methyl]-1,3-benzoxazol-2(3H)-one], for which the IC50 in series [3] (setting [4]) amounted to 13.2 nM. Further, the IC50 in series [1] is 14.6 nM. For the same compound, in series [2], the inhibition in vivo at 0.01 mg/kg is 19%, the inhibition in vivo at 0.1 mg/kg was determined as 50% and the inhibition in vivo at 1 mg/kg stood at 94%.

Take `Cn1c(=O)oc2cc(C(c3cccnc3)n3ccnc3)ccc21` (stereo not drawn) [PCH116]: the IC50 in series [3] (setting [4]) came out at 33.7 nM; in series [1], 34.6 nM.

`N#Cc1cccc(C(c2ccc3[nH]c(=O)oc3c2)n2ccnc2)c1` (stereo not drawn) [PCH119]: the IC50 in series [3] (setting [4]) amounted to 25.1 nM; in series [1] it was 27.7 nM.

For `O=c1[nH]c2cc(C(c3ccccc3)n3ccnc3)ccc2o1` (stereo not drawn) [PCH124, 5-[1H-Imidazol-1-yl(phenyl)methyl]-1,3-benzoxazol-2(3H)-one], in series [3] (setting [4]), the concentration for half-maximal inhibition (IC50) stood at 14.9 nM. Also, the IC50 in series [1] is 14.1 nM. In series [2], the inhibition in vivo at 0.01 mg/kg came out at 34%, the inhibition in vivo at 0.1 mg/kg worked out at 71% and the inhibition in vivo at 1 mg/kg is 92%.

`Cn1c(=O)sc2ccc(C(c3ccc(C#N)cc3)n3cncn3)cc21` (stereo not drawn) [PCH163, 4-[(3-Methyl-2-oxo-2,3-dihydro-1,3-benzothiazol-5-yl)(1H-1,2,4-triazol-1-yl)methyl]benzonitrile] registered a melting point of 122 to 125 °C. Besides, in series [3] (setting [5]), the half-inhibitory concentration (IC50) is 5.78 nM. In series [2], the inhibition in vivo at 0.001 mg/kg was found to be 57%, the inhibition in vivo at 0.01 mg/kg amounted to 83% and the inhibition in vivo at 0.1 mg/kg came to 95%.

As for `CCn1c(=O)sc2ccc(C(c3ccc(C#N)cc3)n3cncn3)cc21` (stereo not drawn) [PCH246, 4-[(3-Ethyl-2-oxo-2,3-dihydro-1,3-benzothiazol-5-yl)(1H-1,2,4-triazol-1-yl)methyl]benzonitrile], the melting point was 125 to 127 °C. Moreover, the 50% inhibitory concentration (IC50) in series [3] (setting [5]) came to 5.51 nM. Moreover, in series [2], the inhibition in vivo at 0.001 mg/kg was determined as 22%, the inhibition in vivo at 0.01 mg/kg amounted to 45% and the inhibition in vivo at 0.1 mg/kg is 91%.

`Cn1c(=O)[se]c2cc(C(c3ccc(C#N)cc3)n3cncn3)ccc21` (stereo not drawn) [PCH300, 4-[(3-Methyl-2-oxo-2,3-dihydro-1,3-benzoselenazol-6-yl)(1H-1,2,4-triazol-1-yl)methyl]benzonitrile] displayed a melting point of 154 to 158 °C. Further, the 50% inhibitory concentration (IC50) in series [3] (setting [5]) was found to be 4.64 nM. Moreover, in series [2], the inhibition in vivo at 0.001 mg/kg is 49%, the inhibition in vivo at 0.01 mg/kg was 86% and the inhibition in vivo at 0.1 mg/kg came to 91%.

On to `N#Cc1ccc(C(c2ccc3[nH]c(=O)[se]c3c2)n2cncn2)cc1` (stereo not drawn) [PCH302, 4-[(2-oxo-2,3-dihydro-1,3-benzoselenazol-6-yl)(1H-1,2,4-triazol-1-yl)methyl]benzonitrile], for which the melting point was in the range of 223 to 226 °C. The IC50 in series [3] (setting [5]) came to 6.53 nM. For the same compound, in series [2], the inhibition in vivo at 0.001 mg/kg was 45%, the inhibition in vivo at 0.01 mg/kg came out at 20% and the inhibition in vivo at 0.1 mg/kg is 63%.

For the compound `Cn1c(=O)[se]c2cc(C(c3ccc([N+](=O)[O-])cc3)n3cncn3)ccc21` (stereo not drawn) [PCH304, 3-Methyl-6-[(4-nitrophenyl)(1H-1,2,4-triazol-1-yl)methyl]-1,3-benzoselenazol-2(3H)-one], the melting point fell in the range of 190 to 195 °C. The 50% inhibitory concentration (IC50) in series [3] (setting [5]) was 3.64 nM.

In the case of `CCn1c(=O)[se]c2cc(C(c3ccc([N+](=O)[O-])cc3)n3cncn3)ccc21` (stereo not drawn) [PCH305, 3-Ethyl-6-[(4-nitrophenyl)(1H-1,2,4-triazol-1-yl)methyl]-1,3-benzoselenazol-2(3H)-one], the melting point lay in the range of 79 to 82 °C. The half-inhibitory concentration (IC50) in series [3] (setting [5]) is 3.7 nM.
